Test results taken from publication PMC10914731, “Homo-BacPROTAC-induced degradation of ClpC1 as a strategy against drug-resistant mycobacteria” (Nature Communications, 2024).
≈ marks a conversion by molar mass, not a printed value. Where “and” joins values, the source holds several entries; their conditions need not be identical. Equal values may be shown once. Read-outs that look alike come from different tables or passages of the source.

Assays:
[1] = target: ClpC1 NTD protein (M. tuberculosis) (Mycobacterium tuberculosis, UniProt P9WPC9); assay: biochemical; format: binding
ClpC1 NTD protein (M. tuberculosis), sequence (P9WPC9 1-156, looked up, natural form): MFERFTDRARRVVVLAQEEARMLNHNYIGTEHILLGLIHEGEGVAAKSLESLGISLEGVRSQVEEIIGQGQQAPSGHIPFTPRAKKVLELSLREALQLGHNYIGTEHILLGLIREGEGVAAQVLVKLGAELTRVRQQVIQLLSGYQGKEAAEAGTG

[2] = tested on: M. tuberculosis H37Rv (ATCC 27294); assay: microbe, parasite or virus in culture; format: cell-based
Caco-2 monolayers = assay: in vitro
Summary of the method: (§1)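 Permeability across Caco-2 monolayers was measured in both directions, apical-to-basolateral and basolateral-to-apical, in 10^-6 cm s-1. Efflux ratio = P(B−A)/P(A−B). Intrinsic permeability is the mean of P(A−B) and P(B−A).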

in vitro = details: human; for Papp B→A: basolateral to apical
Summary of the method: as §1

[3] = format: in vitro ADME, Human
Msm 700084 = assay: microbe, parasite or virus in culture; format: cell-based
[4] = format: in vitro ADME, Rat
[5] = Hepatocyte stability, mice; format: in vitro ADME; details: clearance in hepatocytes
Summary of the method: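 Cryopreserved mouse hepatocytes (about 1 million cells/mL, pH 7.4, 50% species serum) incubated with 1 µM compound, DMSO <0.05%, at 37 °C for up to 6 h, sampled at 6 time points. Parent remaining measured by HPLC-MS/MS; half-life converted via well-stirred liver model to clearance as % Qh.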

Msm 607 = assay: microbe, parasite or virus in culture; format: cell-based
[6] = Microsomal stability, human; format: in vitro ADME; details: Human
Experimental: The kinetics of compound degradation in liver microsomes is assessed in an assay with 1 µmol/l of compound and 0.5 mg/ml liver microsomes in a medium of 100 mM Tris-HCl pH 7.5, 6.5 mM MgCl2 and 1 mM NADPH at 37 °C. The reaction is stopped at multiple time points by adding acetonitrile. After centrifugation, the compound concentration is measured in the supernatants by high-performance liquid chromatography (HPLC) tandem mass spectrometry (MS/MS). The results are fitted to a first-order decay and the half-lives are converted to clearance (stated as % of the liver blood flow (%Qh)) using the well-stirred liver model.

[7] = target: His6-tagged ClpC1-NTD substrate, M. smegmatis ClpC1P1P2 (UniProt A0R574+P9WPC9); assay: biochemical; format: biochemical
His6-tagged ClpC1-NTD substrate, M. smegmatis ClpC1P1P2, sequence (P9WPC9 1-156, looked up, natural form): as above
His6-tagged ClpC1-NTD substrate, M. smegmatis ClpC1P1P2, sequence (A0R574 whole entry): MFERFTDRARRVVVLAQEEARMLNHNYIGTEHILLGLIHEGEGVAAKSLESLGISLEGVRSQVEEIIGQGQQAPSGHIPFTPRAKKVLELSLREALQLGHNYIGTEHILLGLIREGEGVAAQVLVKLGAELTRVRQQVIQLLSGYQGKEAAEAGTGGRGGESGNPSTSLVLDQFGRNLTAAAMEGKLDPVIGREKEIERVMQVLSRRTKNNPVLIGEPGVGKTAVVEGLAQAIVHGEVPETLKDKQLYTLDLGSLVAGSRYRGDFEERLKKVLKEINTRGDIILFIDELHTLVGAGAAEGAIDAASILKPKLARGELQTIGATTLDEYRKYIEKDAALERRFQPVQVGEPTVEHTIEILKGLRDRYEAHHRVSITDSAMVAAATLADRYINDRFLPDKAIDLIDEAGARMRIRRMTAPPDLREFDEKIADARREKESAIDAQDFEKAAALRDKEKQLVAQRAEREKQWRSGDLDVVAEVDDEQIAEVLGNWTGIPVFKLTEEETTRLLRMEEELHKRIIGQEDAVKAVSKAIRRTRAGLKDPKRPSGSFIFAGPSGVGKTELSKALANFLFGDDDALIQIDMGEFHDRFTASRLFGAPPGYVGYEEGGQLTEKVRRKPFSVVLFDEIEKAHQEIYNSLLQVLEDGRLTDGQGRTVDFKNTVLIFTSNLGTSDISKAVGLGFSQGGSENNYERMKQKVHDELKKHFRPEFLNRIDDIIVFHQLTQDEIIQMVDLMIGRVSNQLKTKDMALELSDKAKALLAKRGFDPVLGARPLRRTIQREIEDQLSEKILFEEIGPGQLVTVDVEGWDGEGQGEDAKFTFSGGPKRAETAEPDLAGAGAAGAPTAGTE

[8] = target: ClpC1-NTD substrate, M. tuberculosis ClpC1P1P2 (Mycobacterium tuberculosis, UniProt P9WPC9); assay: biochemical; format: biochemical
ClpC1-NTD substrate, M. tuberculosis ClpC1P1P2, sequence (P9WPC5 whole entry): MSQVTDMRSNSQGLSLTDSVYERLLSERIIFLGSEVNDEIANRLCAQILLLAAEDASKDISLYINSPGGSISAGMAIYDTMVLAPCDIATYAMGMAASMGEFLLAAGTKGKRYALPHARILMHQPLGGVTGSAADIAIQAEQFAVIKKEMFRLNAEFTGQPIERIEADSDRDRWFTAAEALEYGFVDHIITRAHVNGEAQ
ClpC1-NTD substrate, M. tuberculosis ClpC1P1P2, sequence (P9WPC9 whole entry): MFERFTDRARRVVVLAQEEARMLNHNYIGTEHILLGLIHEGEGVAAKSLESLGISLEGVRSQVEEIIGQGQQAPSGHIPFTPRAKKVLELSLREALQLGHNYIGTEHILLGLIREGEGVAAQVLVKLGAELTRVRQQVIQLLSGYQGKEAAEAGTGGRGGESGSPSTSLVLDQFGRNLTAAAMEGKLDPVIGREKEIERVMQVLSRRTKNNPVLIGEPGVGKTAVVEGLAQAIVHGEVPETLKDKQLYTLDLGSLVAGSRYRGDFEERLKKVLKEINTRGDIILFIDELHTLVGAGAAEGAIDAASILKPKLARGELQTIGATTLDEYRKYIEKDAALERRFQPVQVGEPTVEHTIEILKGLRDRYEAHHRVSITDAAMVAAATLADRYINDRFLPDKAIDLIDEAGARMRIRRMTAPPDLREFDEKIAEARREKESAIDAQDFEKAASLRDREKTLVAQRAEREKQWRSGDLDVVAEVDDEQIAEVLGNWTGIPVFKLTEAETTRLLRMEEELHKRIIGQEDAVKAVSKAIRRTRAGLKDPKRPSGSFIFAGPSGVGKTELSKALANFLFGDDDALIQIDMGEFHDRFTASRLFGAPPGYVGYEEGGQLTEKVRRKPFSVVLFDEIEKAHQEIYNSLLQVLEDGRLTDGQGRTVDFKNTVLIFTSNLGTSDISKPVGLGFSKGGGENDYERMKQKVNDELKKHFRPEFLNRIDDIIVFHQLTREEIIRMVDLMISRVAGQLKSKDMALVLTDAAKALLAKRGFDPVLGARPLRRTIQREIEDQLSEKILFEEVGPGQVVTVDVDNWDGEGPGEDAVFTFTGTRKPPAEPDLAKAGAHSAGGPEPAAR
ClpC1-NTD substrate, M. tuberculosis ClpC1P1P2, sequence (P9WPC3 whole entry, further chain): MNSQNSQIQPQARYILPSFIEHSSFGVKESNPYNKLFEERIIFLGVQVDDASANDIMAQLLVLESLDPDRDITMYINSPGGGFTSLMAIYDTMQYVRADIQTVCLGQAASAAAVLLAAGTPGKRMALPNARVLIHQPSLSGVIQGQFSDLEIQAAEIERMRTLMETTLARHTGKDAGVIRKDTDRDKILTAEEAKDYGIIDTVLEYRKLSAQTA

[9] = read-out: DC50, single measurements

CO[C@H](c1ccccc1)[C@@H]1NC(=O)[C@H](C)NC(=O)[C@H](C[C@@H](C)CO)N(C)C(=O)[C@H](Cc2cn(C)c3ccccc23)N(C)C(=O)[C@H](Cc2cn(CCCCCn3cc(C[C@@H]4NC(=O)[C@H](CC(C)C)N(C)C(=O)[C@H](C(C)C)NC(=O)[C@H]([C@H](OC)c5ccccc5)NC(=O)[C@H](C)NC(=O)[C@H](C[C@@H](C)CO)N(C)C(=O)[C@H](Cc5cn(C)c6ccccc56)N(C)C4=O)nn3)nn2)NC(=O)[C@H](CC(C)C)N(C)C(=O)[C@H](C(C)C)NC1=O [Compound 22]
Kd ([1]; SPR, individual measurements (source data), read-out: KD ClpC1-NTD): 0.000764 µM and 0.00113 µM | koff ClpC1-NTD ([1]; SPR, single independent measurements): 0.01 s⁻¹ | koff ([1]; SPR, single independent measurements, read-out: koff ClpC1-NTD): 0.007 s⁻¹ | Kd ([1]; SPR, read-out: ClpC1-NTD KD Mean ± SD): 0.0009 ± 0.0003 µM | MIC ([2]; Mycobacterium tuberculosis, M. tuberculosis H37Rv strain, read-out: MIC Mtb H37Rv Mean ± SD): 3.1 µM (≈ 6.23 µg/mL) | MIC ([2]; Mycobacterium tuberculosis, Mtb H37Rv (Supplementary Table 2), read-out: MIC Mtb): 3.1 µM (≈ 6.23 µg/mL) | MIC ([2]; Mycobacterium tuberculosis, individual measurements (source data), read-out: Mtb MIC): 3.12 µM (≈ 6.28 µg/mL) | MIC ([2]; Mycobacterium tuberculosis, single determinations, read-out: Mtb MIC): 3.12 µM (≈ 6.28 µg/mL) | MIC ([2]; individual measurements (source data), read-out: Mtb MIC): 3.125 µM (≈ 6.28 µg/mL) | Permeability Correlation P (A-B) (Caco-2 monolayers; influence of Trp-Nα methylation on P(A-B), matched pair, listed under the methylated partner): 0.7 | Permeability Correlation Ratio (Caco-2 monolayers; influence of Trp-Nα methylation on efflux ratio, matched pair, listed under the methylated partner): 1 | Caco-2 Int. Perm (Caco-2 monolayers; mean value of P(A−B) and P(B−A)): 0.3 10-6 cm s-1 | efflux ratio (in vitro; Caco-2): 0.3 | Papp B→A (in vitro; Caco-2, CACO permeability PEBA): < 0.051 ×10⁻⁶ cm/s | Papp A→B (in vitro; Caco-2, Caco-2 permeability P (A-B), apical to basolateral): 0.5 ×10⁻⁶ cm/s | Papp B→A (in vitro; Caco-2, Caco-2 permeability P (B-A)): 0.2 ×10⁻⁶ cm/s | Hepatocyte Human ([3]; clearance in hepatocytes): 12 %Qh | MIC (Msm 700084; Mycolicibacterium smegmatis, 700084, single determinations, read-out: Msm 700084 MIC): > 50 µM | MIC (Msm 700084; Mycolicibacterium smegmatis, 700084, read-out: MIC Msm 700084): > 50 µM | Hepatocyte Stability Rat QH ([4]; Rat): 9.923% | Hepatocyte Rat ([4]; clearance in hepatocytes): 10 %Qh | Hepatocyte Mice [5]: 15 %Qh | MIC (Msm 607; Mycolicibacterium smegmatis, 607, read-out: MIC Msm 607): 2.3 ± 1.1 µM (≈ 4.62 µg/mL)

COC(c1ccc(OCc2cn(CCOCCOCCOCCOCCn3cc(COc4ccc(C(OC)C5NC(=O)C(C)NC(=O)C(CC(C)CO)N(C)C(=O)C(Cc6cn(C)c7ccccc67)NC(=O)C(C(C)C)NC(=O)C(CC(C)C)N(C)C(=O)C(C(C)C)NC5=O)cc4)nn3)nn2)cc1)C1NC(=O)C(C)NC(=O)C(CC(C)CO)N(C)C(=O)C(Cc2cn(C)c3ccccc23)NC(=O)C(C(C)C)NC(=O)C(CC(C)C)N(C)C(=O)C(C(C)C)NC1=O (stereo not shown) [SI-39]
koff ClpC1-NTD [1]: 1E-3 7E-4 1/s | Kd ([1]; read-out: KD ClpC1-NTD): 0.000477 µM and 0.000422 µM | Kd ([1]; read-out: KD ClpC1-NTD Mean ± SD): 0.00045 ± 4e-05 µM | MIC ([2]; Mtb H37Rv (Supplementary Table 2), read-out: MIC Mtb): 0.2 µM (≈ 0.446 µg/mL) | MIC ([2]; single determinations, read-out: Mtb MIC): 0.195 µM (≈ 0.435 µg/mL) | CACO permeability PEAB (Caco-2 monolayers; Caco-2): <0.000 cm/sec | CACO permeability PEBA (Caco-2 monolayers; Caco-2): <0.000 cm/sec | Caco-2 Int. Perm (Caco-2 monolayers; Caco-2): 2.9 10-6 cm s-1 | Caco-2 permeability P (A-B) (Caco-2 monolayers; Caco-2): < 4.1 10-6 cm s-1 | Caco-2 permeability P (B-A) (Caco-2 monolayers; Caco-2): < 1.7 10-6 cm s-1 | Microsomal Stability Human QH [6]: 39.3% | Hepatocyte Human [3]: 12 %Qh | Hepatocyte Stability Human QH [3]: 12.386% | MIC (Msm 700084; single determinations, read-out: Msm 700084 MIC): 12.500 µM (≈ 27.9 µg/mL) | Hepatocyte Rat [4]: 6 %Qh | Hepatocyte Stability Rat QH [4]: 6.192% | 1-Dmax, Mean [7]: 88% | 1-Dmax, single measurements [7]: 79.0% and 91.3% and 94.4% | DC50 ([7]; read-out: DC50, Mean): 5.8 µM | DC50 [7, 9]: 6.5 µM and 5.3 µM and 5.6 µM | Hepatocyte Mice [5]: 15 %Qh | 1-Dmax, Mean [8]: 73% | 1-Dmax, single measurements [8]: 79.7% and 65.9% and 73.8% | DC50 ([8]; read-out: DC50, Mean): 7.7 µM | DC50 [8, 9]: 8.5 µM and 5.9 µM and 8.7 µM | Msm 607 MIC (Msm 607; single determinations): 12.500 µM
